Source: article PMC12677844, “Profiling Inhibitor Scaffolds for the Cancer Target Jumonji‐C Domain‐Containing Protein 6” (Chemmedchem, 2025)
pIC50: −log10 of the molar value. Values joined by “and” are separate entries in the source; they are usually repeats but may differ in a detail not shown here. Identical values can stand only once. Like-named read-outs stand apart in the source and are kept apart here.

What was measured:
full‐length His6‐JMJD6 = molecular target: T1, full‐length His6‐JMJD6 (Homo sapiens, UniProt Q6NYC1); assay: JMJD6 SPE–MS inhibition assay (BRD4_511–550 hydroxylation); assay type: biochemical; conditions: for pIC50: His6‐JMJD6 0.05 µM, 2OG 100 µM, FAS 2 µM, BRD4_511–550 1 µM, L‐ascorbic acid 100 µM, means of two independent runs (mean ± SD)
T1 construct: Isolated recombinant full‐length human JMJD6 with a N‐terminal His6‐tag; made in house; host or cells: Escherichia coli BL21 (DE3)
Description: Co‐substrate concentrations were chosen based on reported SPE–MS kinetic parameters for the JMJD6‐catalyzed BRD4_511–550 monohydroxylation reaction.^[ [56] ^] […] Since JMJD6 has a relatively high 2OG Kmapp , the JMJD6 SPE–MS inhibition assay employs a 2OG concentration which is relatively high compared to most other 2OG oxygenase SPE–MS assays, possibly more accurately reflecting cellular 2OG concentrations.^[ [59] ^, [60] ^] Likely saturating concentrations of LAA (100 µM) and FAS (2 µM) were used.
JMJD6 catalyzes oxidation of BRD4_511–550 to give multiple hydroxylation products,^[ [56] ^] an observation potentially complicating data analysis.
Isolated recombinant full‐length human JMJD6 with a N‐terminal His6‐tag was produced in Escherichia coli BL21 (DE3) cells and purified as reported.^[ [1] ^, [56] ^] […] Purified His6‐JMJD6 was stored at −78 °C; fresh aliquots were used for all JMJD6 assays.
DMSO and 2,4‐PDCA (final assay concentration: 500 µM) were used as negative and positive inhibition controls, respectively. Each reaction was performed in technical duplicates in adjacent wells of the assay plates.
Cosubstrate/cofactor stock solutions (L‐ascorbic acid, LAA: 50 mM in Milli‐Q Ultrapure grade water; 2‐oxoglutarate, 2OG: 20 mM in Milli‐Q Ultrapure grade water; ammonium iron(II) sulfate hexahydrate, FAS, (NH4)2Fe(SO4)2·6H2O: […] in 20 mM aqueous HCl diluted to 1 mM in Milli‐Q Ultrapure grade water) were freshly prepared from commercial solids (Sigma–Aldrich) on the day of the experiment. BRD4_511–550 ([…]) was synthesized by solid‐phase peptide synthesis and was purified by GL Biochem (Shanghai) Ltd (Shanghai, China). Stock solutions of BRD4_511–550 (10 mM in water) were stored at −20 °C.
The plates were centrifuged (1000 rpm, 5 s) and incubated for 15 min at ambient temperature. The substrate mixture (2 × final concentration), containing BRD4_511–550 (2 µM), LAA (200 µM), 2OG (200 µM), and FAS (4 µM) in Tris buffer (50 mM; pH 7.5), was then dispensed across the plates (25 µL per well) using the multidrop dispenser. The plates were centrifuged (1000 rpm, 5 s) and incubated for 20 min at ambient temperature. The enzyme reaction was then stopped by the addition of 10%v/v aqueous formic acid (5 μL per well) using a 16‐channel electronic pipette (ThermoFischer Scientific). The plates were then centrifuged (1000 rpm, 30 s) and analyzed by MS.
Assay samples were aspirated under vacuum for 0.4 s and then loaded onto a C4 SPE cartridge. After loading, the C4 SPE cartridge was washed with 0.1%v/v aqueous formic acid to remove nonvolatile buffer salts (5 s, 1.5 mL min^−1). BRD4_511–550 and the corresponding hydroxylated product peptides were eluted from the SPE cartridge with 0.1%v/v aqueous formic acid in 75/25v/v acetonitrile/water into the mass spectrometer (5 s, 1.6 mL min^−1); the SPE cartridge was subsequently re‐equilibrated with 0.1%v/v aqueous formic acid (1 s, 1.25 mL min^−1).
Peaks corresponding to the m/z + 5 charge states of BRD4_511–550 and the corresponding mono‐ and dihydroxylated product peptides were extracted from the ion chromatogram and integrated using RapidFire Integrator 4.3.0 (Agilent).
From the raw data, dose–response curves (normalized to the 2,4‐PDCA and DMSO controls) were obtained by nonlinear regression (GraphPad Prism 5), which were used to determine IC50 values.

JMJD6 [1] = test system: JMJD6; parameters: method as in PMID 34581506; conditions: 10 µM JMJD6, 100 µM LUC7L2_267–278; ref [35]; read-out: reported IC50 (JMJD6, MALDI‐TOF MS) (converted); cited from earlier work
JMJD6 [2] = test system: JMJD6; parameters: method as in earlier work; conditions: 10 µM JMJD6, 100 µM LUC7L2_267–278; ref [22]; read-out: reported IC50 (JMJD6, LC–MS) (converted); cited from earlier work
PHD2 = test system: PHD2; parameters: method as in PMID 39291299; conditions: isolated PHD2; ref [100]; cited from earlier work
JMJD6 [3] = test system: JMJD6; parameters: method as in PMID 31637004; conditions: assay conditions not described; ref [20]; read-out: reported IC50 (JMJD6) (converted); cited from earlier work
JMJD6 [4] = test system: JMJD6; parameters: method as in PMID 35969736; conditions: Succinate‐Glo and MALDI‐TOF assays; ref [31]; read-out: reported IC50 (JMJD6 lysine hydroxylation); cited from earlier work
JMJD6 [5] = test system: JMJD6; parameters: method as in PMID 31857835; conditions: fluorescence‐based assay; ref [32]; read-out: reported IC50 (JMJD6‐catalyzed histone dimethylarginine N‐demethylation); cited from earlier work
JMJD6 [6] = test system: JMJD6; parameters: method as in PMID 33991627; conditions: substrate other than BRD4_511–550, 2OG 10 μM, JMJD6 10 µM; ref [33]; read-out: reported IC50 (JMJD6, Succinate‐Glo) (converted); cited from earlier work

| SMILES | pIC50 (full‐length His6‐JMJD6; read-out: IC50 (JMJD6, SPE–MS)) | IC50 (JMJD6 [1]) | other results |
| --- | --- | --- | --- |
| CN(C)CCCNC(=O)c1ccc(-c2cc(O)c3ncccc3c2)cc1 [ML324] | ~5.85 and 5.85 |  |  |
| O=C(O)CC(O)(CC(=O)O)C(=O)O [Citrate] | < 4.30 | 987 µM |  |
| CN(C)NC(=O)CCC(=O)O [Daminozide] |  | 94 µM | pIC50 (full‐length His6‐JMJD6; IC50 (JMJD6, SPE–MS)): < 4.30 |
| O=C(O)Cc1csc(=NC(=O)CS(=O)(=O)Cc2ccc3ccccc3c2)n1O [BNS] | ~6.80 and 6.80 |  |  |
| O=C(O)CC[C@@H](O)C(=O)O [D‐2‐Hydroxyglutarate] | < 4.30 | 622 µM |  |
| O=C(O)CC(=O)C(=O)O [Oxaloacetate] | < 4.30 | 204 µM |  |
| O=C(O)c1ccnc(C(=O)O)c1 [2,4‐PDCA, pyridine‐2,4‐dicarboxylic acid] | ~5.80 and 5.80 | ~13 µM and 13 µM | IC50 (JMJD6 [2]): ~5.4 µM and 5.4 µM |
| O=C(O)CNC(=O)C(=O)O [NOG, N‐oxalylglycine] | < 4.30 | 296 µM |  |
| O=c1c2ccccc2[se]n1-c1ccccc1 [Ebselen] | < 4.30 |  |  |
| O=C(O)CCNc1cc(N2CCc3ccccc3CC2)nc(-c2ccccn2)n1 [GSK‐J1] | < 4.30 |  |  |
| O=C(O)c1ccncc1NCc1ccco1 [Compound 34] | ~5.59 and 5.59 |  |  |
| COc1ccc(C(NC(=O)c2cnc(-c3cccnn3)nc2O)c2ccc(OC)cc2)cc1 [MK‐8617] | < 4.30 |  |  |
| O=C(O)CNC(=O)c1c(O)c2ccccc2n(OCC2CC2)c1=O [Desidustat] | ~5.57 and 5.57 |  | pIC50 (PHD2): 5.89 |
| O=C(O)CCC(=O)O [Succinate] | < 4.30 | 261 µM |  |
| O=C(O)C(=O)N[C@H](Cc1ccccc1)C(=O)O [NOFD, N‐oxalyl‐D‐phenylalanine] | < 4.30 |  |  |
| CC(=O)C(=O)O [Pyruvate] | < 4.30 | 2380 µM |  |
| CN(c1ccccc1)c1ccc2c(c1)CCC[C@H]2CNc1cnccc1C(=O)O [QC6352] | ~5.55 and 5.55 |  |  |
| Oc1ccnc(N/N=C/c2ccccc2O)n1 [SKLB325] | ~5.17 and 5.17 |  | IC50 (JMJD6 [3]): 0.78 µM |
| O=C(O)/C=C/C(=O)O [Fumarate] | < 4.30 | 165 µM |  |
| O=C(O)CNC(=O)c1ncc(-c2cccc(Cl)c2)cc1O [Vadadustat] | ~4.77 and 4.77 | 7 µM |  |
| O=C(O)CNC(=O)c1c(O)cc(CCc2ccccc2)n2ncnc12 [Enarodustat] | ~5.92 and 5.92 |  | pIC50 (PHD2): 6.42 |

| SMILES | pIC50 (full‐length His6‐JMJD6; read-out: IC50 (JMJD6, SPE–MS)) | IC50 (JMJD6 [1]) | other results |
| --- | --- | --- | --- |
| O=C(N/N=C/c1c(O)ccc2ccccc12)c1ccncc1 [AS‐8351] | ~5.16 and 5.16 |  |  |
| C/C(=C\C(=O)O)C(=O)O [Mesaconate] | < 4.30 |  |  |
| Cc1ccc2oc(=O)c(-c3nc4cnccc4[nH]3)cc2c1 [WL12] | < 4.30 |  | pIC50 (JMJD6 [4]): < 4.00; pIC50 (JMJD6 [5]): ~6.66 and 6.66 |
| O=C(O)CCC(=O)NO [Compound 1] | ~5.44 and 5.44 | 25 µM |  |
| CC(C)c1c(-c2ccccc2)[nH]c2c(C#N)cnn2c1=O [CPI‐455] | < 4.30 |  |  |
| O=C(NCC1CCC(C(F)(F)F)CC1)c1cnc(-n2cccn2)cc1O (stereo not drawn) [IOX5] | < 4.30 |  |  |
| Cn1ccc(-c2cc(C(=O)OCC(F)(F)F)ccn2)n1 [Compound 7p] | ~5.38 and 5.38 |  | IC50 (JMJD6 [6]): 0.68 µM |
| Cc1nc(C(=O)NCC(=O)O)c(O)c2ccc(Oc3ccccc3)cc12 [Roxadustat] | < 4.30 | 23 µM |  |
| O=C(O)/C=C/C(=O)N(O)CCCCNCc1ccc(COC(=O)Nc2cccc3ccccc23)cc1 [JMJD histone demethylase inhibitor III] | ~7.00 and 7.00 |  |  |
| O=C(O)CNC(=O)c1c(O)c2ccccc2n(Cc2ccccc2)c1=O [IOX2] | ~4.72 and 5.15 |  |  |
| O=C(O)c1cnn(-c2nc3cc(OC(F)(F)F)c(Cl)cc3[nH]2)c1 [JNJ‐42041935] | < 4.30 |  |  |
| O=C(O)CNC(=O)C1=C(O)CCN(Cc2ccc(Oc3ccc(Cl)cc3)nc2)C1=O [TP0463518] | ~5.96 and 5.96 |  |  |
| CC(C)c1cc(C(=O)N2CC[C@@H](NC(=O)C3CC3)C2)[nH]n1 [KDM5A‐IN‐1] | < 4.30 |  |  |
| Cn1ccc(-c2cc(C(=O)O)ccn2)n1 [Compound 10a] | ~7.15 and 7.15 |  | fold more potent than Compound 7p in inhibiting JMJD6 (full‐length His6‐JMJD6; SPE–MS IC50 comparison): ≈ 60 fold; ligand efficiency (LE) (full‐length His6‐JMJD6; from JMJD6 SPE–MS potency): 0.67; fold less potent in Succinate‐Glo assay than in SPE–MS assay (full‐length His6‐JMJD6; reported Succinate‐Glo IC50 versus SPE–MS IC50): ≈ 25 fold; IC50 (JMJD6 [6]): ~1.7 µM and 1.7 µM |
| O=C(O)CC[C@H](O)C(=O)O [L‐2‐Hydroxyglutarate] | < 4.30 | 871 µM |  |
| O=c1c(-n2ccnn2)c[nH]n1-c1cc(N2CCOCC2)ncn1 [Molidustat] | ~4.70 and 4.70 | 74 µM |  |
| O=C(O)c1ccc(O)c2ncccc12 [IOX1] | ~5.19 and 5.19 | ~10 µM and 10 µM |  |
| O=C(O)CC(O)C(=O)O (stereo not drawn) [Malate] |  | 5100 µM | pIC50 (full‐length His6‐JMJD6; IC50 (JMJD6, SPE–MS)): < 4.30 |
| CC(C)(NC(=O)c1c(O)c2ccccc2n(OCc2cscn2)c1=O)C(=O)O [Compound 48] | ~5.15 and 4.72 |  |  |
| O=C(O)CNC(=O)C1C(=O)N(C2CCCCC2)C(=O)N(C2CCCCC2)C1=O [Daprodustat] |  | 10 µM | pIC50 (full‐length His6‐JMJD6; IC50 (JMJD6, SPE–MS)): ~4.55 and 4.55 |
